For 21 compounds, EC50 results are on record in patent publication US20230045421A1 (priority 2018, published 2023).

The first experiment has as its system HBV rcDNA. Briefly: HepDE19 assay with bDNA quantitation of HBV rcDNA. Type of experiment: cell-based, hepatitis B virus. The conditions noted are these: HepDE19 assay, inhibition of formation of relaxed circular DNA (rcDNA), bDNA quantitation; read-out: DE-19bDNA EC50. Summed up: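 Compounds, top concentration 25 μM in 8-point duplicate series, were applied to Tet-free HepDE19 cultures for 7 days. Branched-DNA quantitation of HBV rcDNA against untreated wells gave EC50 and EC90 by 4-parameter fit. Viability (CC50) came from ATP luminescence on parallel plates incubated 4 days.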
Turning to `CC(c1cnc(OCc2nc[nH]n2)c2cc(F)c(F)cc12)N(CCCO)C(=O)Nc1ccc(F)c(Cl)c1` (single isomer, unassigned) [Compound 365, 1-(1-(1-((1H-1,2,4-Triazol-3-yl)methoxy)-6,7-difluoroisoquinolin-4-yl)ethyl)-3-(3-chloro-4-fluorophenyl)-1-(3-hydroxypropyl)urea], the 50% effective concentration (EC50) (usually the midpoint of the concentration-response curve) came to 9 nM. Consider `CC(c1c[nH]c(=O)c2c(F)cccc12)N(CCCO)C(=O)Nc1ccc(F)c(Cl)c1` (single isomer, unassigned) [Compound 366, 3-(3-Chloro-4-fluorophenyl)-1-(1-(8-fluoro-1-oxo-1,2-dihydroisoquinolin-4-yl)ethyl)-1-(3-hydroxypropyl)urea], for which the EC50 worked out at 11000 nM.

As to `CC(c1c[nH]c(=O)c2c(F)cccc12)N(CCCO)C(=O)Nc1ccc(F)c(Cl)c1` (single isomer, unassigned) [Compound 367, 3-(3-Chloro-4-fluorophenyl)-1-(1-(8-fluoro-1-oxo-1,2-dihydroisoquinolin-4-yl)ethyl)-1-(3-hydroxypropyl)urea], the EC50 was 8 nM.

Regarding `CC(c1c[nH]c(=O)c2c(F)cc(F)cc12)N(C)C(=O)Nc1ccc(F)c(Cl)c1` (single isomer, unassigned) [Compound 368, 3-(3-Chloro-4-fluorophenyl)-1-(1-(6,8-difluoro-1-oxo-1,2-dihydroisoquinolin-4-yl)ethyl)-1-methylurea], the EC50 is 2500 nM. Take `CC(c1c[nH]c(=O)c2c(F)cc(F)cc12)N(C)C(=O)Nc1ccc(F)c(Cl)c1` (single isomer, unassigned) [Compound 369, 3-(3-Chloro-4-fluorophenyl)-1-(1-(6,8-difluoro-1-oxo-1,2-dihydroisoquinolin-4-yl)ethyl)-1-methylurea]: the EC50 worked out at 19 nM. Still for that read-out and setting: the same measure for `CC(c1c[nH]c(=O)c2c(F)cc(F)cc12)N(C)C(=O)Nc1ccc(F)cc1` (single isomer, unassigned) [Compound 370, 1-(1-(6,8-Difluoro-1-oxo-1,2-dihydroisoquinolin-4-yl)ethyl)-3-(4-fluorophenyl)-1-methylurea]: 5600 nM; for `CC(c1c[nH]c(=O)c2c(F)cc(F)cc12)N(C)C(=O)Nc1ccc(F)cc1` (single isomer, unassigned) [Compound 371, 1-(1-(6,8-Difluoro-1-oxo-1,2-dihydroisoquinolin-4-yl)ethyl)-3-(4-fluorophenyl)-1-methylurea]: 53 nM.

Consider `CC(C)CN(C(=O)Nc1ccc(F)c(Cl)c1)C(C)c1c[nH]c(=O)c2c(F)cc(F)cc12` (single isomer, unassigned) [Compound 372, 3-(3-Chloro-4-fluorophenyl)-1-(1-(6,8-difluoro-1-oxo-1,2-dihydroisoquinolin-4-yl)ethyl)-1-isobutylurea], for which the EC50 stood at 5 nM. Regarding `CC(C)CN(C(=O)Nc1ccc(F)cc1)C(C)c1c[nH]c(=O)c2c(F)cc(F)cc12` (single isomer, unassigned) [Compound 375, 1-(1-(6,8-Difluoro-1-oxo-1,2-dihydroisoquinolin-4-yl)ethyl)-3-(4-fluorophenyl)-1-isobutylurea], the half-maximal effective concentration (EC50) turned out to be 1700 nM. The same measure, in the same setting: for `CC(C)CN(C(=O)Nc1ccc(F)cc1)C(C)c1c[nH]c(=O)c2c(F)cc(F)cc12` (single isomer, unassigned) [Compound 376, 1-(1-(6,8-Difluoro-1-oxo-1,2-dihydroisoquinolin-4-yl)ethyl)-3-(4-fluorophenyl)-1-isobutylurea] the value was 7 nM; for `CC(c1c[nH]c(=O)c2c(F)cc(F)cc12)N(CCCO)C(=O)Nc1ccc(F)cc1` (single isomer, unassigned) [Compound 377, 1-(1-(6,8-Difluoro-1-oxo-1,2-dihydroisoquinolin-4-yl)ethyl)-3-(4-fluorophenyl)-1-(3-hydroxypropyl) urea], 11000 nM; for `CC(c1c[nH]c(=O)c2c(F)cc(F)cc12)N(CCCO)C(=O)Nc1ccc(F)cc1` (single isomer, unassigned) [Compound 378, 1-(1-(6,8-Difluoro-1-oxo-1,2-dihydroisoquinolin-4-yl)ethyl)-3-(4-fluorophenyl)-1-(3-hydroxypropyl) urea], 24 nM.

Regarding `CC(c1c[nH]c(=O)c2ccc(F)cc12)N(CCS(N)(=O)=O)C(=O)Nc1ccc(F)c(Cl)c1` (single isomer, unassigned) [Compound 381, 2-(3-(3-Chloro-4-fluorophenyl)-1-(1-(6-fluoro-1-oxo-1,2-dihydroisoquinolin-4-yl)ethyl)ureido) ethane-1-sulfonamide], the EC50 stood at 1400 nM.

With `CC(c1c[nH]c(=O)c2ccc(F)cc12)N(CCS(N)(=O)=O)C(=O)Nc1ccc(F)c(Cl)c1` (single isomer, unassigned) [Compound 382, 2-(3-(3-Chloro-4-fluorophenyl)-1-(1-(6-fluoro-1-oxo-1,2-dihydroisoquinolin-4-yl)ethyl)ureido) ethane-1-sulfonamide], the 50% effective concentration (EC50) came to 16 nM. On the same count and under the same terms, the same measure for `CC(c1c[nH]c(=O)c2cc(F)ccc12)N(CCS(N)(=O)=O)C(=O)Nc1ccc(F)c(Cl)c1` (single isomer, unassigned) [Compound 383, 2-(3-(3-Chloro-4-fluorophenyl)-1-(1-(7-fluoro-1-oxo-1,2-dihydroisoquinolin-4-yl)ethyl)ureido) ethane-1-sulfonamide]: 7000 nM; for `CC(c1c[nH]c(=O)c2cc(F)ccc12)N(CCS(N)(=O)=O)C(=O)Nc1ccc(F)c(Cl)c1` (single isomer, unassigned) [Compound 384, 2-(3-(3-Chloro-4-fluorophenyl)-1-(1-(7-fluoro-1-oxo-1,2-dihydroisoquinolin-4-yl)ethyl)ureido) ethane-1-sulfonamide]: 10 nM; for `CC(c1c[nH]c(=O)c2cc(F)c(F)cc12)N(CCS(N)(=O)=O)C(=O)Nc1ccc(F)c(Cl)c1` (single isomer, unassigned) [Compound 385, 2-(3-(3-Chloro-4-fluorophenyl)-1-(1-(6,7-difluoro-1-oxo-1,2-dihydroisoquinolin-4-yl)ethyl)ureido) ethane-1-sulfonamide]: 2600 nM. For the compound `CC(c1c[nH]c(=O)c2cc(F)c(F)cc12)N(CCS(N)(=O)=O)C(=O)Nc1ccc(F)c(Cl)c1` (single isomer, unassigned) [Compound 386, 2-(3-(3-Chloro-4-fluorophenyl)-1-(1-(6,7-difluoro-1-oxo-1,2-dihydroisoquinolin-4-yl)ethyl)ureido) ethane-1-sulfonamide], the concentration for a half-maximal effect (EC50) came out at 11 nM.

Staying with this experiment, now noted: Hepatitis B virus, HepDE19, HepDE19 assay, inhibition of formation of relaxed circular DNA (rcDNA), bDNA quantitation; read-out: DE-19bDNA EC50.
Regarding `CC(c1c[nH]c(=O)c2c(F)cc(F)cc12)N(CCCO)C(=O)Nc1ccc(F)c(Cl)c1` (single isomer, unassigned) [Compound 374, 3-(3-Chloro-4-fluorophenyl)-1-(1-(6,8-difluoro-1-oxo-1,2-dihydroisoquinolin-4-yl)ethyl)-1-(3-hydroxypropyl)urea], the concentration for a half-maximal effect (EC50) came out at 6 nM.

Still in this experiment, the particulars now being: read-out: DE-19bDNA EC50; HepDE19 assay, inhibition of formation of relaxed circular DNA (rcDNA), bDNA quantitation.
As to `CN(C(=O)Nc1ccc(F)c(Cl)c1)C(CO)c1c[nH]c(=O)c2ccccc12` (single isomer, unassigned) [Compound 379, 3-(3-Chloro-4-fluorophenyl)-1-(2-hydroxy-1-(1-oxo-1,2-dihydroisoquinolin-4-yl)ethyl)-1-methylurea], the EC50 is 140 nM. On the same count and under the same terms, for `CN(C(=O)Nc1ccc(F)c(Cl)c1)C(CO)c1c[nH]c(=O)c2ccccc12` (single isomer, unassigned) [Compound 380, 3-(3-Chloro-4-fluorophenyl)-1-(2-hydroxy-1-(1-oxo-1,2-dihydroisoquinolin-4-yl)ethyl)-1-methylurea] the value was 17000 nM.
